test system: mouse monoclonal anti-5-HTOL antibody; assay: Cross reactivity in the competitive immunoassay (labelled conjugate IV vs. anti-5-HTOL antibody); format: binding; details: allowable maximal cross reactivity in urine for a 50 nM detection limit of T-5-G; the tested antibody complied with these criteria
Method: Crossreactivity for various substances was measured in the immunoassay method described below with dilutions (in the diluent) of the tested substance used in stead of urine or standard. The concentration range tested for each substance covered three magnitudes and was up to or above one magnitude the highest noted literature value.
Diluent was 0.05 M sodium phosphate buffer, pH 7.0, containing 0.01 M EDTA, 0.1% Tween® and 1% BSA. Decanting solution was Pharmacia decanting suspension without added antibody suspension (Pharmacia Diagnostics AB). μ-agarose particles carried covalently bound sheep-anti-mouse antibody.
Assay Procedure: Pipette to a test tube 50 μl urine or standard, 50 μl tracer solution, 50 μl antibody solution (one of the above-mentioned six selected clones, 5 μg/ml), mix on shaker ˜600 rpm for ˜1 min, allow to stand for 1.5 h at room temperature, 50 μl of the sheep anti-mouse micro-agarose suspension (˜100 mg/ml), mix as above and let stand for another 0.5 h, then add 2 ml decanting solution, centrifuge 10 min at 3000 rpm, with tubes in Pharmacia decanting racks, in the JR-3.2 Rack Rotor, in a Beckman J-6B centrifuge. Within 5 min after completed centrifugation decant the supernatant and let tube racks stand inverted on absorbtive tissue for 2 min. Finally the remaining radioactivity in the tubes is measured in a gamma counter. A standard curve is made with T-5-G in the diluent at 10, 100, 1000 and 10000 nmol/L.

Compound	Acceptable Crossreactivity [%]
N[C@@H](Cc1c[nH]c2ccccc12)C(=O)O [tryptophan]	≤ 0.6
COc1ccc2[nH]cc(CCO)c2c1 [5-methoxytryptophol]	≤ 5
N[C@@H](Cc1c[nH]c2ccc(O)cc12)C(=O)O [5-hydroxytryptophan]	≤ 0.1
O=C(O)Cc1c[nH]c2ccc(O)cc12 [5-HIAA, 5-hydroxyindole-3-acetic acid]	≤ 0.07
COc1ccc2[nH]cc(CCN)c2c1 [5-methoxytryptamine]	≤ 5
NCCc1c[nH]c2ccccc12 [tryptamine]	≤ 6
O=C(O)Cc1c[nH]c2ccccc12 [indolyl acetic acid]	≤ 0.07
O=C(O)[C@H]1O[C@@H](Oc2ccc([N+](=O)[O-])cc2)[C@H](O)[C@@H](O)[C@@H]1O [p-nitrophenyl-β-D-glucuronide]	≤ 0.002
O=S(=O)(O)Oc1c[nH]c2ccccc12 [indoxyl sulphate]	≤ 0.002
O=C(O)[C@H]1O[C@@H](Oc2c[nH]c3ccccc23)[C@H](O)[C@@H](O)[C@@H]1O [indoxyl-β-D-glucuronide]	≤ 0.002
C[C@]12CC[C@@H]3c4ccc(O[C@@H]5O[C@H](C(=O)O)[C@@H](O)[C@H](O)[C@H]5O)cc4CC[C@H]3[C@@H]1CCC2=O [estrone-β-D-glucuronide]	≤ 50
NCCc1c[nH]c2ccc(O)cc12 [serotonin, 5-hydroxytryptamine]	≤ 7
CC12CCC(=O)C=C1CCC1C2CCC2(C)C(OC3OC(C(=O)O)C(O)C(O)C3O)CCC12 [testosterone-β-D-glucuronide]	≤ 50
O=Cc1c[nH]c2ccccc12 [indole-3-aldehyde]	≤ 0.05
COc1ccc2[nH]cc(CCNC(C)=O)c2c1 [melatonin]	≤ 50

test system: not given; assay: not given; details: human urine; cited from earlier work

Compound	Share of urinary 5-HTOL conjugated with glucuronic acid
O=C(O)[C@H]1O[C@@H](Oc2ccc3[nH]cc(CCO)c3c2)[C@H](O)[C@@H](O)[C@@H]1O [T-5-G, 3-(2-hydroxyethyl)indole-5-yl-O-β-D-glucopyranosiduronic acid]	75-95%

Reference: US6608178B1, “5-hydroxytryptophol (5-HTOL) derivatives, antibodies, immunoassays and detection of recent alcohol consumption” (Alco Dia A.B., priority 1996, dated 2003)
